Data reported in ChEMBL document CHEMBL1201862, “PubChem BioAssay data set” (2004).
Active and inactive are the calls of the source.

How the values were obtained:
[1] = Luminescence Cell-Based Dose Response to Identify Activators of 5'UTR Stem-Loop Driven Prion Protein mRNA Translation in H4-C Neuroglioblastoma Cells. [Related pubchem assays: 1829 (Project Summary), 1814 (Primary HTS)]; type: functional
[2] = Luminescence Cell-Based Dose Confirmation HTS to Identify Activators of 5'UTR Stem-Loop Driven Alpha-Synuclein mRNA Translation in H4 Neuroglioblastoma Cells. [Related pubchem assays: 1829 (Project Summary), 1814 (Primary HTS)]; type: functional
[3] = Luminescence Cell-Based Dose Response HTS to Identify Activators of Luciferase Translation or Activity in H4 […] Cells. [Related pubchem assays: 1829 (Project Summary), 1814 (Primary HTS)]; type: functional
H4 = assay: Luminescence Cell-Based Dose Response HTS to Identify Activators of 5'UTR Stem-Loop Driven Prion Protein mRNA Translation in H4 Neuroglioblastoma Cells. [Related pubchem assays: 1829 (Project Summary), 1814 (Primary HTS)]; type: functional; details: Homo sapiens
[4] = Luminescence Cell-Based Dose Response to Identify Activators of Luciferase Translation or Activity in H4-C Neuroglioblastoma Cells. [Related pubchem assays: 1829 (Project Summary), 1814 (Primary HTS)]; type: functional
[5] = Luminescence Cell-Based Dose Confirmation to Identify Activators of 5'UTR Stem-Loop Driven Alpha-Synuclein mRNA Translation in H4 Neuroglioblastoma Cells. [Related pubchem assays: 1829 (Project Summary), 1814 (Primary HTS)]; type: functional
[6] = biological target: T1, Eukaryotic translation initiation factor 2-alpha kinase 3 (Homo sapiens, UniProt Q9NZJ5); assay: Dose response cell-based high-throughput screening assay to measure PERK inhibition. [Related pubchem assays: 1416 ]; type: functional
T1 sequence (Q9NZJ5 whole entry): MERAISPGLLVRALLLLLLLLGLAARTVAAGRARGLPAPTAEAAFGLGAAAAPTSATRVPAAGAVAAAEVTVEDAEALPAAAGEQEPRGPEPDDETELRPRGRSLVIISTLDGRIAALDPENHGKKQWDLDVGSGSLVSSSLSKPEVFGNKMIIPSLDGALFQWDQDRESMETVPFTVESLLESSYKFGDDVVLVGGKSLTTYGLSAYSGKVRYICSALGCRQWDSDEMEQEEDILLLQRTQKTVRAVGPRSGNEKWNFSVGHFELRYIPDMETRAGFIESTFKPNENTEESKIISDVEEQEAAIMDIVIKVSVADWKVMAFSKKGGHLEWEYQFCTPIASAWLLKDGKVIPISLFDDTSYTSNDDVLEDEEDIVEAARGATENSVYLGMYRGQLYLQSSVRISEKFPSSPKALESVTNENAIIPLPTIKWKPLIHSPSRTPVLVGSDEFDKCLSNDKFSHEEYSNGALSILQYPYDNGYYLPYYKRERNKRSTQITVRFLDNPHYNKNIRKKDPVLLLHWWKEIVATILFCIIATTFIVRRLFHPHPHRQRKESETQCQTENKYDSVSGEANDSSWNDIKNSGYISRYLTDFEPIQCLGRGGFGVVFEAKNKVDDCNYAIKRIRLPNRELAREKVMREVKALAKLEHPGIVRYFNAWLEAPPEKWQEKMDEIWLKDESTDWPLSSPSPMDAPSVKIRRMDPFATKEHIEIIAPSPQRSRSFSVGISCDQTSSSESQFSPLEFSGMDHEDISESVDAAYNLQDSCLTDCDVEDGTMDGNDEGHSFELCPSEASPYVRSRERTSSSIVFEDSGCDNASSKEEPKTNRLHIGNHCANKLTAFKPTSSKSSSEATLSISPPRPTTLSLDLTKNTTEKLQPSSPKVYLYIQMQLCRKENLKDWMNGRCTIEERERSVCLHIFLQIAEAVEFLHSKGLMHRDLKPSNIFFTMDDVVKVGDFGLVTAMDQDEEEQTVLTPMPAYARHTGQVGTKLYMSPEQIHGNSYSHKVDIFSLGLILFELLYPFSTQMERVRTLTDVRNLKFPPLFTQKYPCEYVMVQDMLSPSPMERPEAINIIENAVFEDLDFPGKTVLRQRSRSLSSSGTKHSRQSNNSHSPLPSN

[7] = biological target: T1, Eukaryotic translation initiation factor 2-alpha kinase 3; assay: Counterscreen assay for PERK inhibitors: Dose response cell-based high throughput screening assay to measure inhibition of PERK at 6 hours. [Related pubchem assays: 1522, 1416 ]; type: functional
Aspartyl aminopeptidase = Aspartyl aminopeptidase (Plasmodium falciparum 3D7, UniProt Q8I2J3)
Procathepsin L = Procathepsin L (Homo sapiens, UniProt P07711)
Sequence of Procathepsin L (P07711 whole entry): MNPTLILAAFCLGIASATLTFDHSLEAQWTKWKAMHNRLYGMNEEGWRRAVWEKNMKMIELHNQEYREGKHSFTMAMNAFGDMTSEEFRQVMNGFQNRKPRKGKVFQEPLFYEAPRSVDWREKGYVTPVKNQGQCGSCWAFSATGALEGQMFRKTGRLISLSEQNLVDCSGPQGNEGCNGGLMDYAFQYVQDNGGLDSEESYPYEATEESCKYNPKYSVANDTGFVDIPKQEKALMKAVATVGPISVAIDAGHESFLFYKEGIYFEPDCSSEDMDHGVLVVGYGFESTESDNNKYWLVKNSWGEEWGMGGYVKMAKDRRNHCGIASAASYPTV

[8] = test system: Streptococcus sp. 'group A'; assay: Streptococcus pyogenes SK(-)GAS viability under kanamycin – luminescence, BacTiterGlo, confirmation, counter-screen for streptokinase expression inhibitor project, dose response (AID 1900); type: functional, organism-based
[9] = biological target: T2, Heat shock factor protein 1 (Mus musculus, UniProt P38532); assay: decrease of HSF1-responsive luciferase luminescence – cell-based, NIH3T3, dose retest, confirmation (AID 2382); type: functional;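 further: NIH3T3 fibroblasts with HSF1-driven luciferase reporter stressed by proteasome inhibitor MG132; luminescence from HSF1-driven luciferase expression after 8 hours of MG132 stress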
T2 sequence (P38532 whole entry): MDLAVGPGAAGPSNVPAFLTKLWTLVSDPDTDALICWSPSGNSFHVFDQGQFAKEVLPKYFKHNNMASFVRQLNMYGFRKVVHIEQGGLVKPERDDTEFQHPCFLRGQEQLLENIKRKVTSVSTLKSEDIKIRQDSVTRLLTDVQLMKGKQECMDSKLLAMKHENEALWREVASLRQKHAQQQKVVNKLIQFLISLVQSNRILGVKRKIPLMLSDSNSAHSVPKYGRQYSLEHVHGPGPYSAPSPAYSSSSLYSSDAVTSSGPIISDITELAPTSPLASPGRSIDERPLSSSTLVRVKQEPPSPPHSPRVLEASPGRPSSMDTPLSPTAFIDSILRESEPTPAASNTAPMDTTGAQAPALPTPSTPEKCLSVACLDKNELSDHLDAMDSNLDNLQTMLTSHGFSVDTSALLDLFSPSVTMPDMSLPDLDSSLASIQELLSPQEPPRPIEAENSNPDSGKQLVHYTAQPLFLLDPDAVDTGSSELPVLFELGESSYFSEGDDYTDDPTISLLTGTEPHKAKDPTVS

Streptococcus [10] = assay: Luminescence Microorganism-Based Dose Response Follow up to Identify Compounds Cytotoxic to Streptococcus. [Related pubchem assays: 1677 (Project Summary), 1915, 1914, 1902 (Retest at Dose), 1900 (Counter Screen), 1662 (Primary HTS)]; type: functional, organism-based
Streptokinase A = biological target: T3, Streptokinase A (Streptococcus pyogenes serotype M1, UniProt P10520); assay: viability-normalized secreted streptokinase activity reduction – plasminogen activation absorbance, OD405, dose response (AID 1914); type: functional, Streptococcus pyogenes M1 GAS;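 further: secreted streptokinase activity via plasminogen activation per viability signal from cell pellet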
T3 sequence (P10520 whole entry): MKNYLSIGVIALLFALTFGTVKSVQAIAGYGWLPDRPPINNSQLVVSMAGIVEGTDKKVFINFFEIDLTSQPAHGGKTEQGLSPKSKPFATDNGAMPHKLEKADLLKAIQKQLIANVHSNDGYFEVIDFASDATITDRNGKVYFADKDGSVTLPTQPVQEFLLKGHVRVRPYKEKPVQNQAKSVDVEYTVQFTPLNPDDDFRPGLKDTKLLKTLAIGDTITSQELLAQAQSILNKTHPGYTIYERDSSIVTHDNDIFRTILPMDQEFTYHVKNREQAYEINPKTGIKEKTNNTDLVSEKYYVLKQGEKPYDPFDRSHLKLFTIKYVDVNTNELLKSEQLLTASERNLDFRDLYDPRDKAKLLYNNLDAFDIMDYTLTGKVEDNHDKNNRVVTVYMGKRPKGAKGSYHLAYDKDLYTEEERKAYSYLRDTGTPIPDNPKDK

Streptococcus [11] = assay: GAS UMAA2166 growth inhibition – luminescence, BacTiterGlo, counter-screen for streptokinase expression inhibitor project, dose response (AID 1915); type: functional, organism-based;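 further: potency for reduction of bacterial viability or growth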
Cytochrome P450 2D6 = Cytochrome P450 2D6 (Homo sapiens, UniProt P10635); assay: qHTS Assay for Inhibitors and Substrates of Cytochrome P450 2D6. [Related pubchem assays: 410 ]; type: ADME; details: read-out: Potency
Sequence of Cytochrome P450 2D6 (P10635 whole entry): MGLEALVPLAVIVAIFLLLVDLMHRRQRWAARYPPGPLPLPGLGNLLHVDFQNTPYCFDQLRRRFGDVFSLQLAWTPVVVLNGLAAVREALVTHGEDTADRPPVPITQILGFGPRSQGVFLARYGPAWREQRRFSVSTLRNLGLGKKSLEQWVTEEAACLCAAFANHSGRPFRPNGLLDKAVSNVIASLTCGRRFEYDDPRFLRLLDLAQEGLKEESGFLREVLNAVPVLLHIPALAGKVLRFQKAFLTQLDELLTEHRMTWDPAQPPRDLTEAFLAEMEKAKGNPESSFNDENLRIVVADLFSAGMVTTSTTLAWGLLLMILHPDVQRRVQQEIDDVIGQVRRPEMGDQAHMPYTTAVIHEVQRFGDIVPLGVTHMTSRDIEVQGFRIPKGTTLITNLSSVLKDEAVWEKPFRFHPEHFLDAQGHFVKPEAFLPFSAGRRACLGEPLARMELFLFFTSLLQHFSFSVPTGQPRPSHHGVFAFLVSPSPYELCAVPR

[12] = biological target: T4, Peroxisome proliferator-activated receptor gamma/Nuclear receptor corepressor 2 (Homo sapiens, UniProt P37231+Q9Y618); assay: Counterscreen for NR2E3 inverse agonists: TR-FRET-based biochemical high throughput dose response assay to identify inverse agonists of the interaction between peroxisome proliferator-activated receptor gamma (PPARg) and nuclear receptor co-repressor 2 (NCOR2).; type: functional
T4 sequence (P37231 whole entry): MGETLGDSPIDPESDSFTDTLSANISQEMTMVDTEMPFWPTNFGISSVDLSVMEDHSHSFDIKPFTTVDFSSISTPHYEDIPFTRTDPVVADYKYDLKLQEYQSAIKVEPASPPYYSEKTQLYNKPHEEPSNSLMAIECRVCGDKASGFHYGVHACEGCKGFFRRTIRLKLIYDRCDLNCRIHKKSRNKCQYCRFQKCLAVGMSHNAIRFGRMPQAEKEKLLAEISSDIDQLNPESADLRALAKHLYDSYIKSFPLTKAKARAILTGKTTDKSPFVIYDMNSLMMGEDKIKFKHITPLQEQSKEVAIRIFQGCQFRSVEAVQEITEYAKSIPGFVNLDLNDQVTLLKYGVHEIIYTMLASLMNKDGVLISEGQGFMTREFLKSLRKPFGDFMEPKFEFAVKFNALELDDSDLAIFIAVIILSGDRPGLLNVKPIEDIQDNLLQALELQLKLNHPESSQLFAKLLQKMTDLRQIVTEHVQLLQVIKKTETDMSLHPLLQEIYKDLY
T4 sequence (Q9Y618 whole entry): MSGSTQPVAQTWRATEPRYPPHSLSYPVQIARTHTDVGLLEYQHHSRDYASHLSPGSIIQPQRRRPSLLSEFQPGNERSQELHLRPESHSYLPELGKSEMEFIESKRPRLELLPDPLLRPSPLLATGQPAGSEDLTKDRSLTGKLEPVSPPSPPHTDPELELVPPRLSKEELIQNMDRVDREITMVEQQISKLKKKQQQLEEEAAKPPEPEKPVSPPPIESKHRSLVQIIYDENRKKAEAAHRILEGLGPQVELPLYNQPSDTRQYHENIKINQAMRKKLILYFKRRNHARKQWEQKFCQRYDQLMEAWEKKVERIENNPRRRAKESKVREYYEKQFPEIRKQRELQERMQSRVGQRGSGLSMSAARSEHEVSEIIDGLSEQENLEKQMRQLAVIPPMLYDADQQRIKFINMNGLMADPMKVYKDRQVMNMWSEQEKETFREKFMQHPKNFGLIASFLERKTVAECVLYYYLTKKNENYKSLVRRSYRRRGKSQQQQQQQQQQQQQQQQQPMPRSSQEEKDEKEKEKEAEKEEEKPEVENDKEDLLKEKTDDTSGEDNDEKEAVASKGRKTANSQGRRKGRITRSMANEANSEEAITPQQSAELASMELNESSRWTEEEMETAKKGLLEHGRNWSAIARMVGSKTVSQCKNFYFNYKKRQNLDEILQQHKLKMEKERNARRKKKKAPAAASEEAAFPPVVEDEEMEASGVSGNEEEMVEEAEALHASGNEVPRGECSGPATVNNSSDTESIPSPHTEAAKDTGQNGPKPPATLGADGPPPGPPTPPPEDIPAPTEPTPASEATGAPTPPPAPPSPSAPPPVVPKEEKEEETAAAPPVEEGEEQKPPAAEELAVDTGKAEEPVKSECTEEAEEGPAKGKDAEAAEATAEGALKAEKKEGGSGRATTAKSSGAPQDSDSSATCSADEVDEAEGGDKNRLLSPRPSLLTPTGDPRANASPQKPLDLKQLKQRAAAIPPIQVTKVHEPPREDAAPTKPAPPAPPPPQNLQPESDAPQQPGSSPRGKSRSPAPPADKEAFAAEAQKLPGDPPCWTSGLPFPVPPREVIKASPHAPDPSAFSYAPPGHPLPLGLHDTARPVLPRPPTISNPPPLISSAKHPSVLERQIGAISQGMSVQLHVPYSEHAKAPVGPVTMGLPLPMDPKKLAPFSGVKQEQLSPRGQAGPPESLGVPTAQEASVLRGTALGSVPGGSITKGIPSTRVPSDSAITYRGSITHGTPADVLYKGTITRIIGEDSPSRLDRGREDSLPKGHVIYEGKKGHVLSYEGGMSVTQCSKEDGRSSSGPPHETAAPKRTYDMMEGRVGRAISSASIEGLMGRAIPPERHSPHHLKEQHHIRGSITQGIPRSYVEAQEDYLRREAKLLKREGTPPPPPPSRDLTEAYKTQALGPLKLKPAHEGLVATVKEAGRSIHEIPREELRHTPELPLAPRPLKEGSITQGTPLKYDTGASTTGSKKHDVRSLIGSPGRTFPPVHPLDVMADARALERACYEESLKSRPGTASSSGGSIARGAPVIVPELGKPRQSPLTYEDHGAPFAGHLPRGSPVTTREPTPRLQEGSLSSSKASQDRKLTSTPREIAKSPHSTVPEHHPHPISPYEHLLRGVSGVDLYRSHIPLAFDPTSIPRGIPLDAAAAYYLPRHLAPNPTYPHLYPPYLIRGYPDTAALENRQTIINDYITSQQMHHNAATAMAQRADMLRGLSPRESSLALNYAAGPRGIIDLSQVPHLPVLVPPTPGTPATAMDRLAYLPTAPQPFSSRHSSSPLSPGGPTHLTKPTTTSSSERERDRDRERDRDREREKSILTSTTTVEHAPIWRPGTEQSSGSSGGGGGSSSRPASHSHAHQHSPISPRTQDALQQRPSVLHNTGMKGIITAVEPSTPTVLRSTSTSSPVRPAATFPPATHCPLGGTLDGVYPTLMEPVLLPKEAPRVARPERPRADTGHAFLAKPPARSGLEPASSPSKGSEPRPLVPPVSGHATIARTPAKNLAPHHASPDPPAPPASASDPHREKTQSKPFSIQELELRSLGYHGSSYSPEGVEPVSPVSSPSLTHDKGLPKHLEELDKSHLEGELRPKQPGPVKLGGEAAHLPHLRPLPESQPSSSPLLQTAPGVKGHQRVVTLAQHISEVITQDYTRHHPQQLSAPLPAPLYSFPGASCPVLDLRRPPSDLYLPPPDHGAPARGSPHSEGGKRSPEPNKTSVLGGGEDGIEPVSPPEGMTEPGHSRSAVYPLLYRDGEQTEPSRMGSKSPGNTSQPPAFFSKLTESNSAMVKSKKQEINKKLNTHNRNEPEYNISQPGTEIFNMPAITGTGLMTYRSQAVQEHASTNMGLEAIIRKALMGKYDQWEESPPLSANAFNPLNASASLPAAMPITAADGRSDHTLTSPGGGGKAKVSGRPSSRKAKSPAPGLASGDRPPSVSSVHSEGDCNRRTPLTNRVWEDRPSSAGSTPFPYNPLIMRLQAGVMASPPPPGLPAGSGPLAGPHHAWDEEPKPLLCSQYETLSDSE

[13] = biological target: T5, Photoreceptor-specific nuclear receptor (Homo sapiens, UniProt Q9Y5X4); assay: ligands suppressing NR2E3 nuclear receptor activity – biochemical, TR-FRET, dose response (AID 463256); type: functional
T5 sequence (Q9Y5X4 whole entry): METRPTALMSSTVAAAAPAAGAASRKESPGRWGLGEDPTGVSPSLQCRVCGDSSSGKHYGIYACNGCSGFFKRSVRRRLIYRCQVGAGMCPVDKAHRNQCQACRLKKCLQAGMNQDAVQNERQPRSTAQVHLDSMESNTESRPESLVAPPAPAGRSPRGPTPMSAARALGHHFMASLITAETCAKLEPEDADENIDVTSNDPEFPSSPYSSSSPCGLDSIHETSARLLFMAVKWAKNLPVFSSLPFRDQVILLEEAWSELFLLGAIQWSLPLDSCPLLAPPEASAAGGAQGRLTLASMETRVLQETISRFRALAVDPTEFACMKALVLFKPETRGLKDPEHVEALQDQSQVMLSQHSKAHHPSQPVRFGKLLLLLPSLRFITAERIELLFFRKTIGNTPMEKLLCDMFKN

[14] = biological target: T5, Photoreceptor-specific nuclear receptor; type: functional
Large T antigen = Large T antigen (Simian virus 40, UniProt P03070); type: functional, Betapolyomavirus macacae;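 further: Confirmatory-stage PubChem screen for compounds that inhibit SV40 T antigen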
[15] = biological target: T4, Peroxisome proliferator-activated receptor gamma/Nuclear receptor corepressor 2; type: functional
[16] = biological target: Induced myeloid leukemia cell differentiation protein Mcl-1 (Homo sapiens, UniProt Q07820); type: functional
Sequence of Induced myeloid leukemia cell differentiation protein Mcl-1 (Q07820 whole entry): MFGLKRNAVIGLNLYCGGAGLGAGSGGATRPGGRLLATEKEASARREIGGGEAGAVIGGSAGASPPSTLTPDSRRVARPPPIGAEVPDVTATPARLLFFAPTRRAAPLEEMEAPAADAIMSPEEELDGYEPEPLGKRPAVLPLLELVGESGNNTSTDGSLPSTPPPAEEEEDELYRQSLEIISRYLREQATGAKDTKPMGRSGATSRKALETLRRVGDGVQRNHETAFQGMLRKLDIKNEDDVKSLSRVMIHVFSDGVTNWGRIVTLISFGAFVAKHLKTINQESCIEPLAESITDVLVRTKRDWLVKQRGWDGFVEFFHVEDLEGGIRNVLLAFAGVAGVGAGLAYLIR

[17] = biological target: Benomyl/methotrexate resistance protein (Candida albicans, UniProt P28873); assay: Candida albicans Mdr1 pump inhibition curves – singleplex, Cherry Pick1 hits, dose response (AID 588608); type: functional
NADPH oxidase 1 = biological target: T6, NADPH oxidase 1 (Homo sapiens, UniProt Q9Y5S8); type: functional, cell-based;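 further: Cell-based assay with luminescence read-out, IC50 derived from inhibitor dose-response curves; intracellular ROS from endogenous NOX1 in intact HT29 colon cancer cells; potency of inhibitors that lower the ROS luminescence signal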
T6 sequence (Q9Y5S8 whole entry): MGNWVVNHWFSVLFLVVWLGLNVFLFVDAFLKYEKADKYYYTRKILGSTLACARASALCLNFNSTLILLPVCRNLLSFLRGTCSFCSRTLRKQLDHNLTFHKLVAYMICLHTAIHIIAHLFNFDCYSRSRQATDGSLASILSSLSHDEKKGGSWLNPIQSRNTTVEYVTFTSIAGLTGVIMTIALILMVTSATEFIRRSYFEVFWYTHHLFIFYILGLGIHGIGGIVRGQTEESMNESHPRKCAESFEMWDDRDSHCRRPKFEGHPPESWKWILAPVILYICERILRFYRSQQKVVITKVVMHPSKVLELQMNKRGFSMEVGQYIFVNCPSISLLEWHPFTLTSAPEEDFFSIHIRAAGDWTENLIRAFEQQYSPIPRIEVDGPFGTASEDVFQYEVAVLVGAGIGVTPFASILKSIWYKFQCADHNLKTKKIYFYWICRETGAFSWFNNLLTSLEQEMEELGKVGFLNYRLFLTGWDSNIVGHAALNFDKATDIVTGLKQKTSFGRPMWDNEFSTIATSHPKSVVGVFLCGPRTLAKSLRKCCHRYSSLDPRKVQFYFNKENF

Cytochrome P450 3A4 = Cytochrome P450 3A4 (Homo sapiens, UniProt P08684); details: Potency;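 further: confirmatory qHTS run detecting inhibitors and substrates of CYP3A4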
Cytochrome P450 2C9 = Cytochrome P450 2C9 (Homo sapiens, UniProt P11712); details: Potency

## O=C(/C=C(/c1ccc(Cl)cc1)n1cncn1)c1ccccc1
[1]
  EC50: > 12 µM (not active)
[2]
  EC50: > 120 µM (not active)
[3]
  EC50: > 120 µM (not active)
H4
  EC50: > 120 µM (not active)
[4]
  EC50: > 12 µM (not active)
[5]
  EC50: > 12 µM (not active)

## CC(C)Cn1c(S(=O)(=O)O)nc2ccccc21
[6]
  EC50: > 55.7 µM (not active)
[7]
  EC50: > 55.7 µM (not active)

## Cc1ccc(Cl)cc1NC(=O)Nn1cnnc1
Aspartyl aminopeptidase
  IC50: 1.7 µM (active)
Procathepsin L
  IC50: > 59.6 µM (not active)

## Cc1cccc(NC(=O)C2SC(Nc3c(C)cccc3C)=C(C(=O)N3CCOCC3)C2=N)c1 (stereo not given)
[8]
  EC50: 0.959 µM (active)
[9]
  EC50: > 195 µM (not active)
Streptococcus [10]
  EC50: 4.32 µM (active)
Streptokinase A
  EC50: 3.32 µM (active)
Streptococcus [11]
  EC50: > 150 µM (not active)

## Cc1cc(F)ccc1OC1C=CC(c2ccc3c(c2)OCO3)OC1CO (stereo not given)
Cytochrome P450 2D6
  AC50: 3.98 µM (inconclusive)

## Cc1cc(C)c2nc(SCC(=O)NCCC3=CCCCC3)cc(C)c2c1
[12]
  IC50: > 39.8 µM (not active)
[13]
  IC50: > 39.8 µM (not active)

## CCCOC(=O)CCCN1C(=O)/C(=C2\SC(=S)N(CCCC(=O)OCCC)C2=O)SC1=S
[6]
  EC50: > 55.7 µM (not active)
[7]
  EC50: > 55.7 µM (not active)

## Cc1ccc(-c2c3c([nH]c(=S)c2C#N)CCCC3)o1
[14]
  IC50: 1.09 µM (active)
Large T antigen
  IC50: 35.4 µM (active)
[15]
  IC50: 1.72 µM (active)
[16]
  IC50: 2.4 µM (active)
[17]
  EC50: 6.14 µM (active)

## O=C(CSc1ccc(Cl)cc1)N1c2ccccc2Sc2ccccc21
Streptococcus [10]
  EC50: > 500 µM (not active)

## Cc1cc(/C=N/NC(=O)c2cccc(F)c2)c(C)n1-c1ccccc1
[1]
  EC50: 0.849 µM (active)
[3]
  EC50: < 0.1 µM (inconclusive)
H4
  EC50: > 120 µM (not active)
[4]
  EC50: 0.217 µM (active)
[5]
  EC50: 2.7 µM (active)

## c1ccc(-c2nc(-c3ccco3)[nH]c2-c2ccccc2)cc1
NADPH oxidase 1
  IC50: > 17 µM (not active)

## COc1cc2ccc(=O)oc2c(O)c1OCC=C(C)C [CAPENSIN]
Cytochrome P450 2D6
  AC50: 25.1 µM (inconclusive)
Cytochrome P450 3A4
  AC50: 12.6 µM (inconclusive)
Cytochrome P450 2C9
  AC50: 31.6 µM (inconclusive)
